Source: ChEMBL document CHEMBL2074543, “Interactions of cationic drugs and cardiac glycosides at the hepatic uptake level: studies in the rat in vivo, isolated perfused rat liver, isolated rat hepatocytes and oocytes expressing oatp2” (Arch Pharm Res, 2002)

Molecular target: T1, Solute carrier organic anion transporter family member 1A4 (Rattus norvegicus, UniProt O35913)
T1 sequence (O35913 whole entry): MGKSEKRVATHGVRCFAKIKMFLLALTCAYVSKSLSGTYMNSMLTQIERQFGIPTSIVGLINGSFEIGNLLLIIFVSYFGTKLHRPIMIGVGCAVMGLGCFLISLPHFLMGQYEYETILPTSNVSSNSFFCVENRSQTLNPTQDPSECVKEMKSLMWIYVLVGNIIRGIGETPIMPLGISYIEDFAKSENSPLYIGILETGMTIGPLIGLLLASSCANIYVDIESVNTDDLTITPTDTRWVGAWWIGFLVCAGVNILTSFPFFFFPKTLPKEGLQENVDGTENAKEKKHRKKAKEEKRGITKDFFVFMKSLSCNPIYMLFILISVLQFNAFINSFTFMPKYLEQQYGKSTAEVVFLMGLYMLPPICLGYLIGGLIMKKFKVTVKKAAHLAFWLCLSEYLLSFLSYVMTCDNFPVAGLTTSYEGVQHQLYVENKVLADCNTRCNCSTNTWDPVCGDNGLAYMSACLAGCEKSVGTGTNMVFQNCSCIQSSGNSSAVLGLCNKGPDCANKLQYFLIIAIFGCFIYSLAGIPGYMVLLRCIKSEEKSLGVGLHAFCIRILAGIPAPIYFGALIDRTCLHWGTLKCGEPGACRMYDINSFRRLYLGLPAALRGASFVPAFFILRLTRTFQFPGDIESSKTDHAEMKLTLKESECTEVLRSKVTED
Assay: TP_TRANSPORTER: inhibition of Rocuronium uptake in Xenopus laevis oocytes
Assay type: functional, cell-based
Details: oocyte

| Activity | Structure (SMILES) |
| --- | --- |
| is not an inhibitor [-] | CC[N+](C)(CC)CCNC(=O)c1ccc(N=[N+]=[N-])cc1.[I-] [AZIDOPROCAINAMIDE METHOIODIDE] |
| is not an inhibitor [-] | CCCC[N+](C)(CCCC)CCCC [TRIBUTYLMETHYLAMMONIUM] |
